Drawing on PubChem BioAssay AID248 (DTP/NCI, 2004), this text covers T/C for 20 molecules.

Where “and” joins values, the source holds several entries; their conditions need not be identical. Equal entries are not always repeated. Toxic doses and inconclusive results are not listed.

This assay concerns L1210 leukemia ip in BDF1 mice, survival T/C. As to the kind of experiment: NCI In Vivo Anticancer Drug Screen. Data for tumor model L1210 Leukemia (intraperitoneal) in B6D2F1 (BDF1) mice. The settings on record: endpoint: mean survival time, higher = longer survival. In outline: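 Read-out is survival time, reported as the treated-group measurement over the vehicle-control measurement.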

[1] abbreviates: dose: 100.0 mg/kg/injection, schedule: Q01DX001 (ip), vehicle: carboxymethylcellulose (CMC).
The mark [2] stands for this setting: dose: 200.0 mg/kg/injection, schedule: Q01DX001 (ip), vehicle: carboxymethylcellulose (CMC).
Setting [3] is: dose: 400.0 mg/kg/injection, schedule: Q01DX001 (ip), vehicle: carboxymethylcellulose (CMC).
The mark [4] stands for this setting: dose: 100.0 mg/kg/injection, schedule: Q01DX009 (ip), vehicle: saline with Tween-80.
Setting [5] is: dose: 200.0 mg/kg/injection, schedule: Q01DX009 (ip), vehicle: saline with Tween-80.
Setting [6] is: dose: 400.0 mg/kg/injection, schedule: Q01DX009 (ip), vehicle: saline with Tween-80.
Where [7] appears, read: dose: 100.0 mg/kg/injection, schedule: Q04DX002 (ip), vehicle: saline with Tween-80.
Setting [8] is: dose: 200.0 mg/kg/injection, schedule: Q04DX002 (ip), vehicle: saline with Tween-80.
Setting [9] is: dose: 400.0 mg/kg/injection, schedule: Q04DX002 (ip), vehicle: saline with Tween-80.
[10] abbreviates: dose: 100.0 mg/kg/injection, schedule: Q01DX001 (ip), vehicle: saline with Tween-80.
Setting [11] is: dose: 100.0 mg/kg/injection, schedule: Q04DX003 (ip), vehicle: saline with Tween-80.
Setting [12] is: dose: 200.0 mg/kg/injection, schedule: Q04DX003 (ip), vehicle: saline with Tween-80.
[13] abbreviates: dose: 100.0 mg/kg/injection, schedule: Q01DX001 (ip), vehicle: saline.
The mark [14] stands for this setting: dose: 200.0 mg/kg/injection, schedule: Q01DX001 (ip), vehicle: saline.
The mark [15] stands for this setting: dose: 100.0 mg/kg/injection, schedule: Q01DX009 (ip), vehicle: Klucel (hydroxypropylcellulose) (HPC).
Setting [16] is: dose: 200.0 mg/kg/injection, schedule: Q01DX009 (ip), vehicle: Klucel (hydroxypropylcellulose) (HPC).
Setting [17] is: dose: 400.0 mg/kg/injection, schedule: Q01DX009 (ip), vehicle: Klucel (hydroxypropylcellulose) (HPC).
The mark [18] stands for this setting: dose: 50.0 mg/kg/injection, schedule: Q04DX002 (ip), vehicle: saline with Tween-80.

Take `O=C(O)c1ccccc1-c1ccccc1C(=O)Nc1ccc2c(c1)Cc1cc(F)ccc1-2`: the T/C was 91 % of control (dose: 75.0 mg/kg/injection, schedule: Q01DX001 (ip), vehicle: carboxymethylcellulose (CMC)) and 98 % of control (dose: 150.0 mg/kg/injection, schedule: Q01DX001 (ip), vehicle: carboxymethylcellulose (CMC)).
`c1ccc2c(N=Nc3cccc4ccccc34)cccc2c1`: the T/C under setting [1] was 97 % of control, the T/C under setting [2] was 97 % of control and the T/C under setting [3] is 93 % of control.
`O=C(Nc1ccc(C(=O)Nc2cccc(C3=NCCN3)c2)cc1)Nc1ccc(C2=NCCN2)cc1`: the T/C was 202 % of control (dose: 15.0 mg/kg/injection, schedule: Q01DX Z (ip), vehicle: saline); 183 % of control (dose: 30.0 mg/kg/injection, schedule: Q01DX Z (ip), vehicle: saline); 122 % of control (dose: 60.0 mg/kg/injection, schedule: Q01DX Z (ip), vehicle: saline); 100 % of control (dose: 120.0 mg/kg/injection, schedule: Q01DX Z (ip), vehicle: saline).
Regarding `O=C(NO)N/N=C/c1ccccc1`, the T/C is, setting by setting: (dose: 100.0 mg/kg/injection, schedule: Q01DX001 (ip), vehicle: other) 104 % of control; under setting [4], 104 % of control; (dose: 100.0 mg/kg/injection, schedule: Q04DX003 (ip), vehicle: other) 113 % of control; (dose: 200.0 mg/kg/injection, schedule: Q01DX001 (ip), vehicle: other) 98 % of control; under setting [5], 107 % of control; (dose: 200.0 mg/kg/injection, schedule: Q04DX003 (ip), vehicle: other) 95 % of control. Besides, the T/C is, setting by setting: (dose: 400.0 mg/kg/injection, schedule: Q01DX001 (ip), vehicle: other) 98 % of control; under setting [6], 110 % of control; (dose: 400.0 mg/kg/injection, schedule: Q04DX003 (ip), vehicle: other) 93 % of control.
`O=C1NC2c3ccccc3CCC12` (stereo unspecified): the T/C reads like this: under setting [7], 102 % of control; under setting [8], 100 % of control; under setting [9], 96 % of control.
As to `O=C(Nc1ccc(F)c([N+](=O)[O-])c1)Oc1cccnc1`, the T/C was 97 % of control and 99 % of control (dose: 25.0 mg/kg/injection, schedule: Q01DX009 (ip), vehicle: saline with Tween-80); 95 % of control and 96 % of control (dose: 50.0 mg/kg/injection, schedule: Q01DX009 (ip), vehicle: saline with Tween-80); 108 % of control under setting [10]; 95 % of control and 100 % of control under setting [7]; 97 % of control under setting [11]; 109 % of control (dose: 200.0 mg/kg/injection, schedule: Q01DX001 (ip), vehicle: saline with Tween-80). Also, the T/C runs as follows: under setting [8], 104 % of control and 109 % of control; under setting [12], 100 % of control; under setting [9], 102 % of control and 103 % of control.
Take `C[N+](C)(Cc1ccccc1)/N=C(\[O-])Cc1ccccc1`: the T/C is 95 % of control under setting [13] and 104 % of control under setting [14].
Consider `CCCCCCCCCCCCCCCCCC(=O)N/N=C/C(C=C=C(C)C)(CC)CCCC` (stereo unspecified), for which the T/C under setting [15] was 101 % of control, the T/C under setting [16] was 96 % of control and the T/C under setting [17] is 96 % of control.
In the case of `NC(N)=Nc1ncnc2nncnc12`, the T/C reads like this: (dose: 9.5 mg/kg/injection, schedule: Q01DX001 (ip), vehicle: other) 102 % of control; (dose: 19.0 mg/kg/injection, schedule: Q01DX001 (ip), vehicle: other) 102 % of control; (dose: 38.0 mg/kg/injection, schedule: Q01DX001 (ip), vehicle: other) 102 % of control.
As to `CCOC(CN(Cc1ccccc1)CC(OCC)OCC)OCC`, the T/C runs as follows: under setting [18], 100 % of control; under setting [7], 97 % of control and 100 % of control; under setting [8], 92 % of control; under setting [9], 91 % of control.
For `CC(C#N)Oc1cccc2ccccc12` (stereo unspecified), the T/C runs as follows: (dose: 100.0 mg/kg/injection, schedule: Q01DX009 (ip), vehicle: DMSO) 87 % of control; (dose: 100.0 mg/kg/injection, schedule: Q04DX003 (ip), vehicle: DMSO) 92 % of control; (dose: 200.0 mg/kg/injection, schedule: Q01DX009 (ip), vehicle: DMSO) 87 % of control; (dose: 200.0 mg/kg/injection, schedule: Q04DX003 (ip), vehicle: DMSO) 87 % of control; (dose: 400.0 mg/kg/injection, schedule: Q04DX003 (ip), vehicle: DMSO) 103 % of control.
Turning to `CCOC(=O)/C(C#N)=N/O`, the T/C is 94 % of control (dose: 18.8 mg/kg/injection, schedule: Q01DX009 (ip), vehicle: saline); 95 % of control (dose: 18.8 mg/kg/injection, schedule: Q04DX003 (ip), vehicle: saline); 91 % of control (dose: 37.5 mg/kg/injection, schedule: Q01DX009 (ip), vehicle: saline); 97 % of control (dose: 37.5 mg/kg/injection, schedule: Q04DX003 (ip), vehicle: saline); 97 % of control (dose: 75.0 mg/kg/injection, schedule: Q04DX003 (ip), vehicle: saline).
For the molecule `Cn1c(=O)c2[nH]cnc2n(C)c1=O`, the T/C runs as follows: (dose: 18.25 mg/kg/injection, schedule: Q01DX Z (ip), vehicle: carboxymethylcellulose (CMC)) 105 % of control; (dose: 36.5 mg/kg/injection, schedule: Q01DX Z (ip), vehicle: carboxymethylcellulose (CMC)) 107 % of control; (dose: 63.0 mg/kg/injection, schedule: Q01DX Z (ip), vehicle: carboxymethylcellulose (CMC)) 92 % of control; under setting [1], 98 % of control; (dose: 126.0 mg/kg/injection, schedule: Q01DX Z (ip), vehicle: carboxymethylcellulose (CMC)) 98 % of control; under setting [2], 98 % of control. The T/C under setting [3] was 96 % of control.
Take `CC1CCC(C(C)C)/C(=N/NC(=O)c2ccccc2)C1` (stereo unspecified): the T/C was 98 % of control under setting [15]; 104 % of control (dose: 100.0 mg/kg/injection, schedule: Q04DX003 (ip), vehicle: Klucel (hydroxypropylcellulose) (HPC)); 93 % of control under setting [16]; 102 % of control (dose: 200.0 mg/kg/injection, schedule: Q04DX003 (ip), vehicle: Klucel (hydroxypropylcellulose) (HPC)); 86 % of control under setting [17]; 102 % of control (dose: 400.0 mg/kg/injection, schedule: Q04DX003 (ip), vehicle: Klucel (hydroxypropylcellulose) (HPC)).
On to `O=C1O/C(=C\c2ccccc2)C(O)=C1c1ccccc1`, for which, under setting [10], the T/C was 100 % of control.
As for `CC1=NC(C)(C)C(C)=C1C`, the T/C is, setting by setting: (dose: 25.0 mg/kg/injection, schedule: Q04DX002 (ip), vehicle: saline with Tween-80) 91 % of control; under setting [18], 94 % of control; under setting [7], 91 % of control.
On to `CC(C)C(CN)(CCCCN1CCOCC1)c1cccc2ccccc12` (stereo unspecified), for which the T/C is, setting by setting: under setting [11], 100 % of control; under setting [12], 95 % of control; (dose: 400.0 mg/kg/injection, schedule: Q04DX003 (ip), vehicle: saline with Tween-80) 95 % of control.
Turning to `CCOC(=O)c1c(C)c2c(n1C)CCCC2O` (stereo unspecified), the T/C runs as follows: (dose: 100.0 mg/kg/injection, schedule: Q04DX003 (ip), vehicle: carboxymethylcellulose (CMC)) 101 % of control; (dose: 200.0 mg/kg/injection, schedule: Q04DX003 (ip), vehicle: carboxymethylcellulose (CMC)) 98 % of control; (dose: 400.0 mg/kg/injection, schedule: Q04DX003 (ip), vehicle: carboxymethylcellulose (CMC)) 95 % of control.
Consider `O=C(c1ccccc1Br)C(Br)C(Br)c1ccccc1` (stereo unspecified), for which the T/C is 98 % of control under setting [4], 93 % of control under setting [5] and 91 % of control under setting [6].
For `CCN(CC)S(=O)(=O)c1ccc(OC)c(NC(=O)c2ccc(C(=O)Nc3cc(S(=O)(=O)N(CC)CC)ccc3OC)cc2)c1`, the T/C is, setting by setting: under setting [13], 97 % of control; under setting [14], 94 % of control; (dose: 400.0 mg/kg/injection, schedule: Q01DX001 (ip), vehicle: saline) 102 % of control.
